Measurements reported in publication PMC7355430, “Imunofan—RDKVYR Peptide—Stimulates Skin Cell Proliferation and Promotes Tissue Repair” (Molecules, 2020).
Values joined by “and” are separate entries in the source; they are usually repeats but may differ in a detail not shown here. Equal entries are not always repeated. Peptide text beside a SMILES is read from it.

Assays:
Stability in water = format: physicochemical; conditions: 1 mg/mL in sterile water, 37 °C, 24 h; HPLC Luna C18(2), PDA; 3 independent experiments, n=3 (Figure S1)
Protocol: A stock of IM peptide in sterile water (1 mg/mL) was prepared and divided into 200 µL portions. The sample tubes were stored in an incubator at 37 °C and analysis was performed at various time points (0, 1, 2, 3, 6, and 24 h). The analyses were performed by HPLC using a Luna C18(2) (5 µm, 100 Å 4.6 by 250 mm) column (Phenomenex, Torrance, CA, USA) and monitored by a PDA detector. Then, 0.01% TFA in H2O (A) and 0.01% TFA in 80% ACN in water (B) were used as solvents. A linear gradient of 5–100% B over 60 min and a flow rate of 1 mL/min was applied.
For calculations, peak areas were compared to a calibration curve calculated by LC solution Software (Shimadzu, Kyoto, Japan).

patients = test system: patients; design: method as in PMID 18475748; conditions: subcutaneous injection in patients, response to diphtheria toxoid vaccination; cited from earlier work
basophils = assay: Basophil activation test (BAT); format: cell-based, human; conditions: 0.1 µg/mL, whole blood of healthy volunteers, Flow CAST highsens; cut-off 5%; 7 independent experiments
Protocol: The commercially available test Flow CAST® highsens (Bühlmann Laboratories, Schönenbuch, Switzerland) was used to perform BAT test on blood samples collected from healthy volunteers, who were not suffering from allergy, within 24 h of collection, according to the manufacturer’s protocol. Then, 100 µL of blood was incubated and IM peptide was added to the wells at a final concentration of 0.1 µg/mL. The cells were then stained with fluorochrome-stained monoclonal antibodies (anti-CD63, -CD203c, -CCR3) and incubated for 15 min at 37 °C. Then, erythrocyte lysis was performed, the cells were washed and analyzed by flow cytometry (BD FACSCanto II, San Jose, CA, USA). Each sample was accompanied by its own negative and positive control (anti-FcεRI mAb and fMLP).

BALB/c mice = assay: Ear pinna injury, ear punch closure; format: in vivo, mouse
Protocol: Experiments were performed on 8–12 week-old female BALB/c (24 mice in total) and C57BL/6 mice (36 mice in total). All mice originated from the Centre for Experimental Medicine of the Medical University of Białystok, Poland, and were kept in the animal facility at the Nencki Institute of Experimental Biology throughout the course of the study. After delivery to the Nencki Institute animal facility, mice rested for at least two weeks for acclimatization before starting the experiment. Experiments were approved by the First Local Ethics Committee in Warsaw (permit No. 491/2013 and 542/2018). Animal experimentation was performed in accordance with EU directive 2010/63/EU, and all experiments were undertaken in such a way as to minimize discomfort and the number of animals used in the study.
Mice were placed individually in separate cages, weighed, and randomly divided into two groups within each mouse strain: The treatment group and the control group. Before the study all mice were randomly given numerical equivalents, and all experimenters performing further analysis were not aware of the experimental group and referred solely to those numbers. Similarly, vials containing IM (treatment) or saline (control) were encrypted and assigned to particular mice, so the person performing injections and ear photographs was not aware of mice background. Lastly, the person quantifying each ear hole closure was not aware of the group. Numerical equivalents of each mice were only decrypted at the end of the study. Before study each animal was anesthetized with Isoflurane (Iso-Vet; Piramal, UK), ears were quickly disinfected with 70% isopropanol and circular punches 2 mm in diameter were made in the center of both ear pinnae using disposable biopsy punches (Integra Miltex; Integra Life Sciences, Princeton, NJ, USA). Due to some occasional self-inflicted injuries (tearing off one or both ear lobes) during the course of the study, the measurement data from destroyed lobes were excluded from comparisons of the next time points. […]
To monitor the progress of wound healing, ears were photographed on the day of the injury (day 0, before and right after pinna injury), and on days 7, 14, 21, 28, 35, and 42. […] Finally, the area of the wound hole was outlined by hand on digitized images as an overlay, and the hole areas in the ears were evaluated using computer-assisted image analysis (ImageJ Software). […] The final number of analyzed ears was 23 per group on day 42. […] The final number of analyzed ears on day 42 was 32 in the control group and 16 in the treatment group. […]

CC(C)[C@H](NC(=O)[C@H](CCCCN)NC(=O)[C@H](CC(=O)O)NC(=O)[C@@H](N)CCCNC(=N)N)C(=O)N[C@@H](Cc1ccc(O)cc1)C(=O)N[C@@H](CCCNC(=N)N)C(=O)O [IM, H-Arg-Asp-Lys-Val-Tyr-Arg-OH] (H-RDKVYR-OH)
signal from the IM peptide after incubation in water (Stability in water): no reduction of the signal | levels of interleukin-6 (IL-6) and tumor necrosis factor (TNF) (patients): decreasing levels | level of degranulated cells (basophil activation) (basophils): below 5% | histology of the epidermis in healed ear pinna (BALB/c mice; 42 days after injury, hematoxylin and eosin): signs of parakeratosis | mean ear hole area (BALB/c mice; day 42 post-injury, 2 mm punch, s.c. 5.0 µg/g, 10 injections, mean ± SD, saline control 1.96 ± 0.48): 1.69 ± 0.38 mm^2 | wound closure (ear hole closure) (BALB/c mice; day 42 post-injury, s.c. 5.0 µg/g, 10 injections, mean ± SD, saline control 37.9% ± 14.2%): 46.2% ± 12.2% and 46% | tissue repair in comparison to control (BALB/c mice; ear pinna injury, as summarised in the abstract): 8%
